Assay results from US11357750B2, “Cysteamine prodrugs” (Children's Hospital Medical Center, priority 2017, dated 2022).
Counter-ions that a name gives are not always drawn. Values belong to the compound of their own block, whether it stands above or below them.

What was measured:
[1] = Pharmacokinetic (PK) study of cysteamine in plasma after oral dosing in rats, blood sampling from portal vein and heart (HPV protocol); type: in vivo, rat
Description: Absorption and hepatic extraction information after oral administration and blood sampling from portal vein and heart (HPV protocol) were evaluated.
Blood samples were collected at intervals up to 24 h after dose administration (n=3 animals per each time point).
Sample Collection and Handling: After PO administration, blood samples were collected under deep Isofluorane anesthesia from portal vein and heart of each rat (3 rats per each time point). Blood was collected into potassium EDTA tubes at each of the following time points post-dose (actual times will be recorded): 0.25, 0.5, 1, 2, 4, 6, 8, 12 and 24 hours after dosing. All blood samples were thoroughly, but gently mixed following collection, placed on ice and centrifuged as soon as possible (2000 g for 5 min at 0° C.) to prepare plasma. Duplicate 50 μL aliquots of plasma samples were transferred in micronic tubes.
Plasma Sample Preparation: • 1. Calibration standards (CS) and quality control (QC) plasma samples were prepared by adding 5 μL WS to 45 μL of fresh plasma into micronic tubes using Tecan. • 2. Pseudo QC were prepared by adding 5 μL WSQC to 45 μL of water into micronic tubes using Tecan. • 3. CS, QC, pseudo QC and blank were diluted with 200 μL of KCl solution (1.15%). • 4. Plasma collection was performed by laboratory automation system (LAS). 50 μL whole plasma was transferred into micronic tubes containing 200 μL of KCl solution (1.15%). • 5. All samples were added […] with 20 μL of glutathione ethyl ester as internal standard (0.01 mg/mL in water) and 100 μL of Ellman's reagent (10 mM in water). • 6. […]
Plasma sample analysis: Samples were assayed for cysteamine using a method based on protein precipitation followed by HPLC/MS-MS analysis. Study samples were analyzed in discrete batches together with calibration standards (CS), used to construct calibration curves and blank samples (including also double blanks), used to assess specificity. […] The presence of prodrug and its products were monitored but not quantified in both portal and systemic plasma. […]

[2] = system: intracellular cystine (circulating white blood cells); conditions: taken regularly; measured in circulating white blood cells; cited from earlier work
[3] = cited from earlier work

Structure (SMILES): Cl.NCCS.OCC(O)CO [Glycerol Cysteamine Hydrochloride, glycerol cysteamine hydrochloride]
Release of cysteamine hydrochloride from the glycerol prodrug moiety (conclusion) ([1]; rats PO, gastrointestinal (GI) tract): fully separated from the glycerol prodrug moiety in the gastrointestinal (GI) tract | Cysteamine levels in portal plasma after prodrug administration ([1]; rats PO, versus cysteamine hydrochloride administration): comparable to those observed after cysteamine hydrochloride administration

Structure (SMILES): NCCS [cysteamine, 2-aminoethane-1-thiol]
Depletion of intracellular cystine [2]: up to 90% | Duration of activity (short half-life) ([3]; in vivo): 5 to 6 h | Estimated bioavailability ([3]; oral administration, extensive first pass metabolism): 10-30%

Fa % (fraction absorbed) ([1]; male, CD, rat, in vivo, po): 16.1%
Structure (SMILES): NCCS [Cysteamine Hydrochloride, cysteamine hydrochloride]
